ChEMBL document CHEMBL4715890, “Flavonoids from Sophora alopecuroides L. improve palmitate-induced insulin resistance by inhibiting PTP1B activity in vitro” (Bioorg Med Chem Lett, 2021)
Values after ≈ are worked out from the molar mass of the structure shown. Active and inactive are the calls of the source. The calls are words filed in the database; no cut-off is given here.

How the values were obtained:
C2C12 [1] = test: Cytotoxicity against mouse C2C12 cells assessed as reduction in cell viability by MTT assay; assay type: cell-based; conditions: for IC50: Mus musculus, C2C12; for IC10: mouse, c2c12
[2] = biological target: T1, Tyrosine-protein phosphatase non-receptor type 1 (Mus musculus) (UniProt P35821); test: Inhibition of PTP1B in mouse PA-induced insulin-resistance C2C12 cells assessed as increase in glucose consumption at 1 ug/ml in presence of insulin after 16 hrs; assay type: cell-based; conditions: dose 1.0 µg/ml
T1 sequence (whole entry): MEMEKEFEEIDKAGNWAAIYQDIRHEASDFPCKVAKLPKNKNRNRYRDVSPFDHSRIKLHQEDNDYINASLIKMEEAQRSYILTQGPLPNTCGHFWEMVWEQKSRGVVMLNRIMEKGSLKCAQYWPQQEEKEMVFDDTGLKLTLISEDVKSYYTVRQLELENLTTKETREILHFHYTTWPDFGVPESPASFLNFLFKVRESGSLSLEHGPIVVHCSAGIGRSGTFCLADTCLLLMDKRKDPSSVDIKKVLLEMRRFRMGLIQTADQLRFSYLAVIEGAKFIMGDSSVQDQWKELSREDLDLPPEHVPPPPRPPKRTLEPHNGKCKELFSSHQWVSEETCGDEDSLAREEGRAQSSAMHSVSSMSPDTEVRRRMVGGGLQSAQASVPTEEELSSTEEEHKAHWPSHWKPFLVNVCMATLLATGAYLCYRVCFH

[3] = biological target: T2, Tyrosine-protein phosphatase non-receptor type 1 (Homo sapiens) (UniProt P18031); test: Inhibition of PTP1B (unknown origin) at 0.1 ug/ml relative to control; conditions: dose 0.1 µg/ml
T2 sequence (whole entry): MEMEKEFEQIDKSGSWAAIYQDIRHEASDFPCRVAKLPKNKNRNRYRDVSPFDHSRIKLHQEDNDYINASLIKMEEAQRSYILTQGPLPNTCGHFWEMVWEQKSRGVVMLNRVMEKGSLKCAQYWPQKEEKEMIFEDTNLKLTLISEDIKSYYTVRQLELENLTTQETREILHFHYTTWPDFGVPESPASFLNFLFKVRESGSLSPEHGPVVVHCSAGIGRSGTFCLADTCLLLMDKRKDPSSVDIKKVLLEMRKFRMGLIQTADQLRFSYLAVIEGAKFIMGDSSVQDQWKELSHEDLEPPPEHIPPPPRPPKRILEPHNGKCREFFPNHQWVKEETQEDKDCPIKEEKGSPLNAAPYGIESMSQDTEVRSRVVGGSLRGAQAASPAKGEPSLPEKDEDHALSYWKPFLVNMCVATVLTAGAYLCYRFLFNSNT

C2C12 [4] = test: Induction of glucose uptake in mouse C2C12 cells at 1 ug/ml; assay type: functional, cell-based
C2C12 [5] = test: Induction of glucose uptake in mouse C2C12 cells at 1 ug/ml in presence of insulin; assay type: functional, cell-based; conditions: dose 1.0 µg/ml

Row | Glucose consumption increase [2] | inhibition [3] | Compound | IC50 (C2C12 [1]) | IC10 (C2C12 [1]) | Activity (C2C12 [4]) | Activity (C2C12 [5])
1 | – | – | COc1ccc(-c2cc(=O)c3c(O)cc(O[C@@H]4O[C@H](CO[C@@H]5O[C@@H](C)[C@H](O)[C@@H](O)[C@H]5O)[C@@H](O)[C@H](O)[C@H]4O)cc3o2)cc1O [DIOSMIN] | 20 µg/mL (≈ 32.8 µM) | 5.14 µg/mL (≈ 8.45 µM) | – | –
2 | Active | 70.1% | COc1cc(O)c2c(=O)c(-c3ccc(O)c(OC)c3)coc2c1 | 32.5 µg/mL (≈ 103 µM) | 6.93 µg/mL (≈ 22 µM) | Active | Active
3 | Active | 88.8% | O=c1c(-c2ccc(O)cc2)coc2cc(O[C@@H]3O[C@H](CO[C@@H]4OC[C@@H](O)[C@H](O)[C@H]4O)[C@@H](O)[C@H](O)[C@H]3O)cc(O)c12 | 34.2 µg/mL (≈ 60.5 µM) | 6.07 µg/mL (≈ 10.8 µM) | Active | Active
4 | Active | – | O=c1c(-c2ccc3c(c2)OCO3)coc2cc(O)ccc12 [PSEUDOBAPTOGENIN] | 12.1 µg/mL (≈ 42.8 µM) | 3.49 µg/mL (≈ 12.4 µM) | Active | Active
5 | – | – | O=C(/C=C/c1ccccc1)c1ccc(O)cc1O [2',4'-DIHYDROXYCHALCONE] | 32.3 µg/mL (≈ 134 µM) | 6.14 µg/mL (≈ 25.6 µM) | Active | Active
6 | – | – | O=C(/C=C/c1ccc(O)c(O)c1)c1ccc(O[C@@H]2O[C@H](CO)[C@@H](O)[C@H](O)[C@H]2O)cc1O | 20.8 µg/mL (≈ 47.9 µM) | 4.39 µg/mL (≈ 10.1 µM) | – | –
7 | Active | 68.9% | O=c1cc(-c2ccc(O[C@@H]3O[C@H](CO)[C@@H](O)[C@H](O)[C@H]3O)c(O)c2)oc2cc(O)ccc12 | 29 µg/mL (≈ 67.1 µM) | 5.85 µg/mL (≈ 13.5 µM) | Active | Active
8 | – | – | O=c1cc(-c2ccc(O)cc2)oc2cc(O)cc(O)c12 [APIGENIN] | 26.6 µg/mL (≈ 98.4 µM) | 4.96 µg/mL (≈ 18.4 µM) | Active | Active
9 | Active | 68.9% | O=c1cc(-c2ccc(O)c(O)c2)oc2cc(O[C@@H]3O[C@H](CO)[C@@H](O)[C@H](O)[C@H]3O)ccc12 | 40 µg/mL (≈ 92.6 µM) | 10.07 µg/mL (≈ 23.3 µM) | Active | Active
10 | Active | 81.6% | O=C(/C=C/c1ccc(O)c(O)c1)OC[C@H]1O[C@@H](Oc2ccc3c(=O)c(-c4ccc(O)cc4)coc3c2)[C@H](O)[C@@H](O)[C@@H]1O | 31.2 µg/mL (≈ 54 µM) | 8.81 µg/mL (≈ 15.2 µM) | Active | Active
11 | – | – | O=C(/C=C/c1ccc(O)cc1)c1ccc(O)cc1O [ISOLIQUIRITIGENIN] | 26.3 µg/mL (≈ 103 µM) | 7.43 µg/mL (≈ 29 µM) | Active | Active
12 | – | – | O=C(/C=C/c1ccc(O)c(O)c1)c1ccc(O)cc1O [BUTEIN] | 19 µg/mL (≈ 69.8 µM) | 3.99 µg/mL (≈ 14.7 µM) | – | –
13 | Active | – | COc1cc(O)c2c(=O)c(-c3ccc(O)cc3)coc2c1 [PRUNETIN] | 23.2 µg/mL (≈ 81.8 µM) | 7.19 µg/mL (≈ 25.3 µM) | Active | Active
14 | Active | 95.2% | COc1cc(/C=C/C(=O)OC[C@H]2O[C@@H](Oc3ccc4c(=O)c(-c5ccc(O)c(O)c5)coc4c3)[C@H](O)[C@@H](O)[C@@H]2O)ccc1O | 24.3 µg/mL (≈ 40 µM) | 7.36 µg/mL (≈ 12.1 µM) | Active | Active
15 | – | – | O=c1c(-c2ccc3c(c2)OCO3)coc2cc(O[C@@H]3O[C@H](CO)[C@@H](O)[C@H](O)[C@H]3O)ccc12 | 13.5 µg/mL (≈ 30.3 µM) | 4.18 µg/mL (≈ 9.41 µM) | – | –
16 | – | – | O=c1c(O)c(-c2ccc(O)c(O)c2)oc2cc(O)cc(O)c12 [QUERCETIN] | 30.8 µg/mL (≈ 102 µM) | 9.23 µg/mL (≈ 30.5 µM) | – | –
